In general, IC50 refers to the concentration at which inhibition is half-maximal. The low end stands for higher potency, the high end for lower potency.

Our source for the IC50 values is ChEMBL document CHEMBL1149943, “2-aminoalchohol immunosuppressants: Structure-activity relationships” (Bioorg Med Chem Lett, 1996).

For the assay, the species on record is Mus musculus. Kind of assay: Compound was tested for its effect on mouse allogenic mixed lymphocyte reaction(MLR). It counts as functional, organism-based.
`CCCCCCCCc1ccc(CC[C@@H](N)CO)cc1` yielded an IC50 of 108 nM.

The compound `CCCCCCCCCCCCCC[C@H](N)CO` registered a half-maximal inhibitory concentration (IC50) of 137 nM.

Regarding `CCCCCCCCCCCCCC[C@@H](N)CO`, the IC50 stood at 68.8 nM.

`CCCCCCCCc1ccc(CC[C@H](N)CO)cc1` displayed a concentration for half-maximal inhibition (IC50) of 427 nM.

`CCCCCCCCCCCCCCCCCC[C@H](N)CO` gave a 50% inhibitory concentration (IC50) of 1390 nM.

The compound `CCCCCCCCCCCCCCCCCC[C@@H](N)CO` came in with a half-maximal inhibitory concentration (IC50) of 533 nM.

For the compound `CCCCCCCCc1ccc(CCC(N)CO)cc1` (stereo not given), the IC50 came to 211 nM.

In the case of `CCCCCCCCCCCCCCC(N)CO` (racemic), the IC50 was found to be 98.3 nM.

Compound `CCCCCCCCCCCCCCCCCCC(N)CO` (racemic) returned a 50% inhibitory concentration (IC50) of 867 nM.

Turning to `CCCCCCCCc1ccc(CCC(N)(CO)CO)cc1` [FINGOLIMOD], it took 67.4 nM to reach half-maximal inhibition (IC50).
